Source: patent US11752091B2, “Composition for strengthening skin barrier, moisturizing skin or anti-aging” (COSMAX, INC., priority 2020, dated 2023)

Tests used:
Settings in all cases: 37° C., 48 hours (examined up to 72 hours); well color change to purple or red
S. mitis (CX-8) = assay: Substance utilization by isolated strains (BioLOG GP2, API 50); assay type: cell-based, Streptococcus mitis
Procedure: (§1) To analyze substance utilization by the isolated strains (Streptococcus pneumoniae, Streptococcus infantis, and Streptococcus mitis), tests were conducted in the following manner. BioLOG GP2 and API 50 were used in determining the substance utilization, and testing was performed using testing methods provided by Omnilog and Biomeriuse. The culturing temperature and media suitable to corresponding strains were selected, and 5 among cluster colonies incubated for 48 hours were taken and suspended in reagents before use. The inoculation amount was 150 μl. As the suspension, components of kits provided by various manufacturers were used. When the strains are yet to be inoculated, the suspension is in a transparent liquid phase. Inoculated plates and strips were incubated at 37° C. for 48 hours, and then the incubation of up to 72 hours was examined. Wells were in a transparent liquid phase at the time of inoculating, but the colors of the wells changed to purple or red, and the color-changed wells were determined to be positive.

S. pneumoniae (CX-2) = assay type: cell-based, Streptococcus pneumoniae
Procedure: as §1

S. infantis (CX-4) = assay: Substance utilization by isolated strains (BioLOG GP2, API 50); assay type: cell-based, Streptococcus infantis
Procedure: as §1

Molecule: [Cl-].[Na+] [1% NaCl, NaCl]
- substance utilization, S. mitis (CX-8) (S. mitis (CX-8)): +
- substance utilization, S. pneumoniae (CX-2) (S. pneumoniae (CX-2)): +
- substance utilization, S. infantis (CX-4) (S. infantis (CX-4)): +

Molecule: CC(O)C(=O)[O-].[Na+] (stereo not shown) [1% Sodium Lactate, Sodium Lactate]
- substance utilization, S. mitis (CX-8) (S. mitis (CX-8)): +
- substance utilization, S. pneumoniae (CX-2) (S. pneumoniae (CX-2)): +
- substance utilization, S. infantis (CX-4) (S. infantis (CX-4)): +

Molecule: OC[C@H]1O[C@@H](O[C@H]2[C@H](O)[C@@H](O)[C@H](O)O[C@@H]2CO)[C@H](O)[C@@H](O)[C@@H]1O [D-Cellobiose]
- substance utilization, S. mitis (CX-8) (S. mitis (CX-8)): +
- substance utilization, S. pneumoniae (CX-2) (S. pneumoniae (CX-2)): +
- substance utilization, S. infantis (CX-4) (S. infantis (CX-4)): +

Molecule: O=P(O)(O)OC[C@H]1OC(O)(CO)[C@@H](O)[C@@H]1O (stereo partly drawn) [D-Fructose-6-Po4]
- substance utilization, S. mitis (CX-8) (S. mitis (CX-8)): +

Molecule: OC[C@H]1O[C@H](OCC2O[C@@H](O)[C@H](O)[C@@H](O)[C@@H]2O)[C@H](O)[C@@H](O)[C@H]1O (stereo partly drawn) [D-Melibiose]
- substance utilization, S. pneumoniae (CX-2) (S. pneumoniae (CX-2)): +

Molecule: OC[C@H]1O[C@H](OC[C@H]2O[C@H](O[C@]3(CO)O[C@H](CO)[C@@H](O)[C@@H]3O)[C@H](O)[C@@H](O)[C@@H]2O)[C@H](O)[C@@H](O)[C@H]1O [D-Raffinose]
- substance utilization, S. pneumoniae (CX-2) (S. pneumoniae (CX-2)): +

Molecule: OC[C@H]1O[C@H](O[C@H]2[C@H](O)[C@@H](O)[C@H](O)O[C@@H]2CO)[C@H](O)[C@@H](O)[C@@H]1O [D-maltose]
- substance utilization, S. mitis (CX-8) (S. mitis (CX-8)): +
- substance utilization, S. pneumoniae (CX-2) (S. pneumoniae (CX-2)): +
- substance utilization, S. infantis (CX-4) (S. infantis (CX-4)): +

Molecule: O=C1O[C@H]([C@@H](O)CO)[C@@H](O)[C@@H]1O [L-Galactonic Acid Lactone]
- substance utilization, S. mitis (CX-8) (S. mitis (CX-8)): +

Molecule: [Cl-].[Li+] [Lithium Chloride]
- substance utilization, S. mitis (CX-8) (S. mitis (CX-8)): +

Molecule: O=[Te]([O-])[O-].[K+].[K+] [Potassium Tellurite]
- substance utilization, S. mitis (CX-8) (S. mitis (CX-8)): +
- substance utilization, S. pneumoniae (CX-2) (S. pneumoniae (CX-2)): +
- substance utilization, S. infantis (CX-4) (S. infantis (CX-4)): +

Molecule: CO[C@H]1/C=C/O[C@@]2(C)Oc3c(C)c([O-])c4c(O)c(cc(O)c4c3C2=O)NC(=O)/C(C)=C\C=C\[C@H](C)[C@H](O)[C@@H](C)[C@@H](O)[C@@H](C)[C@H](OC(C)=O)[C@@H]1C.[Na+] [Rifamycin SV]
- substance utilization, S. mitis (CX-8) (S. mitis (CX-8)): +
- substance utilization, S. infantis (CX-4) (S. infantis (CX-4)): +

Molecule: OC[C@H]1O[C@H](OC[C@H]2O[C@H](OC[C@H]3O[C@H](O[C@]4(CO)O[C@H](CO)[C@@H](O)[C@@H]4O)[C@H](O)[C@@H](O)[C@@H]3O)[C@H](O)[C@@H](O)[C@H]2O)[C@H](O)[C@@H](O)[C@H]1O [Stachyose]
- substance utilization, S. mitis (CX-8) (S. mitis (CX-8)): +
- substance utilization, S. pneumoniae (CX-2) (S. pneumoniae (CX-2)): +
- substance utilization, S. infantis (CX-4) (S. infantis (CX-4)): +

Molecule: COc1cc(-c2ccc(-n3nc(-c4ccccc4)n[n+]3-c3ccccc3)c(OC)c2)ccc1-n1nc(-c2ccccc2)n[n+]1-c1ccccc1.[Cl-].[Cl-] [Tetrazolium Blue]
- substance utilization, S. mitis (CX-8) (S. mitis (CX-8)): +
- substance utilization, S. infantis (CX-4) (S. infantis (CX-4)): +

Molecule: D-Salicin
- substance utilization, S. mitis (CX-8) (S. mitis (CX-8)): +

Molecule: D-Turanose
- substance utilization, S. pneumoniae (CX-2) (S. pneumoniae (CX-2)): +

Molecule: Dextrin
- substance utilization, S. mitis (CX-8) (S. mitis (CX-8)): +
- substance utilization, S. pneumoniae (CX-2) (S. pneumoniae (CX-2)): +
- substance utilization, S. infantis (CX-4) (S. infantis (CX-4)): +

Molecule: Pectin
- substance utilization, S. mitis (CX-8) (S. mitis (CX-8)): +
- substance utilization, S. pneumoniae (CX-2) (S. pneumoniae (CX-2)): +
- substance utilization, S. infantis (CX-4) (S. infantis (CX-4)): +

Molecule: Tween 40
- substance utilization, S. pneumoniae (CX-2) (S. pneumoniae (CX-2)): +
- substance utilization, S. infantis (CX-4) (S. infantis (CX-4)): +
